Tests used:
Format in all cases: physicochemical
[1] = Compatibility of raw material and auxiliary material; settings: 60° C., 25° C./90% RH, 40° C./75% RH, illumination; 30 days
Source text: Operation: Common auxiliary materials of solid oral dosage forms were selected to be mixed with the SHEN26 drug substance in different ratios, and the mixtures were placed under different conditions and separately taken out at different time points. The compatibility of the drug substance and the auxiliary materials was judged by taking the appearance, the hygroscopic weight gain, the content and the related substance as indexes. For the ratio of the raw and auxiliary materials, according to “Basic Technical Guidelines for Research of Chemical Drug Formulation” and the specification of the formulation, the auxiliary material with a relatively large amount was determined according to a ratio of main drug:diluent=1:5, the auxiliary material with a moderate amount (such as croscarmellose sodium) was mixed according to a ratio of main drug:disintegrant=1:1, and the auxiliary material with a relatively small amount (such as magnesium stearate) was mixed according to a ratio of main drug:lubricant=5:1. The manufacturer information of the raw and auxiliary materials in the compatibility experiment and the ratio of raw and auxiliary materials are shown in Table 16. […]

[2] = Stability investigation - related substance; settings: API, package N/A, condition N/A
Protocol: 37167-054A and 37167-054B were packed as described in Table 17 and Table 18, then separately placed under illumination (open), 40° C./75% RH (open), and 40° C./75% RH (closed) conditions for 0 day, 10 days, and 30 days, and detected for the dissolution and related substance.

[3] = Micromeritic properties of API and formula powders
Source text: Detection of micromeritic properties: The micromeritic properties of the SHEN26 compound raw material and the micromeritic properties of the mixed powder obtained by directly mixing the SHEN26 compound and other auxiliary materials were detected.
Preparation method: pulverizing the compound SHEN26, sieving the compound (sieving separately with a 40-mesh sieve and a 60-mesh sieve), mixing with a pharmaceutically acceptable excipient, performing dry granulation, adding an external lubricant, mixing, and filling capsules to give a capsule of the compound SHEN26. Observation of phenomenon: After dry granulation, the micromeritic properties were examined, and the results are shown in Table 12. Dissolution detection: The compound SHEN26 capsules obtained in Example 4 were separately detected for the dissolution, and the results are shown in Table 13.

Compound: CC(C)C(=O)OC[C@H]1O[C@@](C#N)(c2ccc3c(N)ncnn23)[C@H](O)[C@@H]1O [SHEN26]
- Compatibility with auxiliary materials (appearance, hygroscopic weight gain, content, related substance) [1]: good compatibility
- Related substance % RRT 0.37 [2]: 0.26%
- Related substance % RRT 0.54 [2]: 0.35%
- Related substance % RRT 1.03 [2]: 0.15%
- Related substance % RRT 1.30 [2]: 0.05%
- Total impurity % [2]: 0.81%
- Angle of repose (°) [3]: 40.98 °
- Bulk density [3]: 0.53 g/mL
- Carr index (%) [3]: 27.40%
- Tap density [3]: 0.73 g/mL

Source: patent publication US20250339377A1, “PHARMACEUTICAL COMPOSITION OF NUCLEOSIDE-DERIVED COMPOUND, PREPARATION METHOD THEREFOR, AND USE THEREOF” (SHENZHEN ANTIV PHARMA CO., LTD., priority 2022, published 2025)
